pKi: −log10 of the molar value. Active and inactive are the calls of the source. No cut-off for these calls is given here.
How the values were obtained:
Carbonic anhydrase 1 = Carbonic anhydrase 1 (Homo sapiens, UniProt P00915); assay: Inhibition of human cytosolic CA 1 preincubated for 15 mins by phenol red dye-based stopped-flow CO2 hydration assay
Carbonic anhydrase 2 = Carbonic anhydrase 2 (Homo sapiens, UniProt P00918); assay: Inhibition of human cytosolic CA 2 preincubated for 15 mins by phenol red dye-based stopped-flow CO2 hydration assay
Carbonic anhydrase 9 = Carbonic anhydrase 9 (Homo sapiens, UniProt Q16790); assay: Inhibition of membrane bound human CA 9 preincubated for 15 mins by phenol red dye-based stopped-flow CO2 hydration assay
Carbonic anhydrase 12 [1] = target: T1, Carbonic anhydrase 12 (Homo sapiens, UniProt O43570); assay: Inhibition of membrane bound human CA 12 preincubated for 15 mins by phenol red dye-based stopped-flow CO2 hydration assay
PANC-1 [2] = assay: Cytotoxicity against human PANC1 cells assessed as reduction in cell viability incubated for 48 hrs under hypoxia condition by MTT assay relative to human ARPE19 cells; format: functional
ARPE-19 [3] = assay: Cytotoxicity against human ARPE19 cells assessed as reduction in cell viability incubated for 48 hrs under hypoxia condition by MTT assay relative to control; format: cell-based; settings: arpe-19, 48 h
ARPE-19 [4] = assay: Cytotoxicity against human ARPE19 cells assessed as reduction in cell viability incubated for 48 hrs under normoxic condition by MTT assay relative to control; format: cell-based; settings: arpe-19, 48 h
Carbonic anhydrase 12 [5] = target: T1, Carbonic anhydrase 12
Description: Inhibition of human CA 12 catalytic domain

SK-MEL-2 [6] = assay: Cytotoxicity against human SK-MEL-2 cells assessed as reduction in cell viability incubated for 48 hrs under hypoxia condition by MTT assay relative to control; format: functional, cell-based
SK-MEL-2 [7] = assay: Cytotoxicity against human SK-MEL-2 cells assessed as reduction in cell viability incubated for 48 hrs under normoxic condition by MTT assay relative to control; format: functional, cell-based
PANC-1 [8] = assay: Cytotoxicity against human PANC1 cells assessed as reduction in cell viability incubated for 48 hrs under hypoxia condition by MTT assay; format: functional, cell-based
PANC-1 [9] = assay: Cytotoxicity against human PANC1 cells assessed as reduction in cell viability incubated for 48 hrs under normoxic condition by MTT assay relative to control; format: functional, cell-based
PANC-1 [10] = assay: Cytotoxicity against human PANC1 cells assessed as reduction in cell viability incubated for 48 hrs under hypoxia condition by MTT assay relative to control; format: functional, cell-based
SK-MEL-2 [11] = assay: Cytotoxicity against human SK-MEL-2 cells assessed as reduction in cell viability at 300 uM incubated for 48 hrs under normoxic condition by MTT assay relative to control; format: functional, cell-based

Sequence of Carbonic anhydrase 1 (P00915 whole entry): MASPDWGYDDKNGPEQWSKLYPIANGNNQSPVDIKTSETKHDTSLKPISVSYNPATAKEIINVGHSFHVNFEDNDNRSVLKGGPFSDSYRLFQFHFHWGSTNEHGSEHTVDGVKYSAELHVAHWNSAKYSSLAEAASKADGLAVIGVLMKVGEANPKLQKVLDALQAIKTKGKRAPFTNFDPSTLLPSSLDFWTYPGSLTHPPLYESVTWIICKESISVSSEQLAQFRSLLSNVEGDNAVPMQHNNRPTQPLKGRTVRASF
T1 sequence (O43570 whole entry): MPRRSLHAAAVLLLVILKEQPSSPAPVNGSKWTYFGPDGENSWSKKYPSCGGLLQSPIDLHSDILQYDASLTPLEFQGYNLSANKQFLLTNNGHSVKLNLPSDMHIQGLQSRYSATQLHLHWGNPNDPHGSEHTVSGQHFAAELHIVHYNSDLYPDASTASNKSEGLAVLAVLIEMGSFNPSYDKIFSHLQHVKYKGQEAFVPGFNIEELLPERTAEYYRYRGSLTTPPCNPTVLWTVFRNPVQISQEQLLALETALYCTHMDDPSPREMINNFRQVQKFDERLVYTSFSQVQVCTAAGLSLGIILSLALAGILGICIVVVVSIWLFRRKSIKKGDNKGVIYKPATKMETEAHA

| SMILES | pKi (Carbonic anhydrase 1) | pKi (Carbonic anhydrase 2) | pKi (Carbonic anhydrase 9) | pKi (Carbonic anhydrase 12 [1]) | Activity (PANC-1 [2]) [%] | Activity (ARPE-19 [3]) | Activity (ARPE-19 [4]) | pKi (Carbonic anhydrase 12 [5]) | Activity (SK-MEL-2 [6]) | Activity (SK-MEL-2 [7]) | Activity (PANC-1 [8]) | Activity (PANC-1 [9]) | Activity (PANC-1 [10]) | Activity (SK-MEL-2 [11]) |
| --- | --- | --- | --- | --- | --- | --- | --- | --- | --- | --- | --- | --- | --- | --- |
| NS(=O)(=O)c1ccc(N2N=C(c3ccc(Cl)c(Cl)c3)CCC2=O)cc1 | 5.22 | 7.13 | 8.22 | 7.17 | – | – | – | – | – | – | – | – | – | – |
| NS(=O)(=O)c1ccc(-n2ncc(N3CCCCCC3)c(Cl)c2=O)cc1 | 7.01 | 10.22 | 9.31 | 8.08 | >30 | Dose-dependent effect | Dose-dependent effect | – | – | – | – | – | – | – |
| NS(=O)(=O)c1ccc(S(=O)(=O)Nc2cccc3c(Cl)c[nH]c23)cc1 | – | – | – | – | – | – | – | 8.52 | – | – | – | – | – | – |
| NS(=O)(=O)c1ccc(N2N=C(c3ccccc3)CCC2=O)cc1 | 6.73 | 9.59 | 8.32 | 7.65 | – | – | – | – | – | – | – | – | – | – |
| CC1=NN(c2ccc(S(N)(=O)=O)cc2)C(=O)CC1 | 7.05 | 9.17 | 7.48 | 7.51 | >30 | – | – | – | – | – | – | – | – | – |
| NS(=O)(=O)c1ccc(-n2ncc(N3CCc4ccccc4C3)c(Cl)c2=O)cc1 | 6.13 | 7.22 | 7.05 | 7.07 | – | – | – | – | – | – | – | – | – | – |
| NS(=O)(=O)c1ccc(-n2ncc(N3CCN(c4ccccn4)CC3)c(Cl)c2=O)cc1 | 6.17 | 7.33 | 7.05 | 6.98 | >30 | – | – | – | – | – | – | – | – | – |
| NS(=O)(=O)c1ccc(-n2ncc(N3CCOCC3)c(Cl)c2=O)cc1 | 7.05 | 10.15 | 9.24 | 7.44 | >30 | – | Non-Toxic | – | Dose-dependent effect | Dose-dependent effect | – | – | – | – |
| COc1ccc2cnn(-c3ccc(S(N)(=O)=O)cc3)c(=O)c2c1OC | 7.04 | 8.46 | 8.05 | 7.18 | – | – | – | – | – | – | – | – | – | – |
| NS(=O)(=O)c1ccc(-n2ncccc2=O)cc1 | 6.49 | 8.09 | 8.05 | 7.09 | >30 | Non-Toxic | Non-Toxic | – | inactive | inactive | inactive | inactive | inactive | – |
| NS(=O)(=O)c1ccc(-n2ncc(NCc3ccccc3)c(Cl)c2=O)cc1 | 7.02 | 10.05 | 9.17 | 8.03 | – | – | – | – | – | – | – | – | – | – |
| COc1ccc(C2=NN(c3ccc(S(N)(=O)=O)cc3)C(=O)CC2)cc1 | 7.03 | 10.10 | 8.62 | 8.00 | >30 | Dose-dependent effect | Dose-dependent effect | – | – | – | – | – | – | – |
| NS(=O)(=O)c1ccc(-n2ncc(NCCCN3CCOCC3)c(Cl)c2=O)cc1 | 6.32 | 9.17 | 8.55 | 8.00 | – | – | – | – | – | – | – | – | – | – |
| NS(=O)(=O)c1ccc(-n2nc(-c3ccc4c(c3)OCO4)ccc2=O)cc1 | 7.00 | 8.85 | 7.55 | 7.20 | – | – | – | – | – | – | – | – | – | – |
| Cc1cc(-c2cccnc2)nn(-c2ccc(S(N)(=O)=O)cc2)c1=O | 7.00 | 8.54 | 8.64 | 8.06 | – | – | – | – | – | – | – | – | – | – |
| NS(=O)(=O)c1ccc(-n2nc(-c3ccncc3)ccc2=O)cc1 | 6.64 | 8.32 | 7.29 | 8.06 | – | – | – | – | – | – | – | – | – | – |
| NS(=O)(=O)c1ccc(-n2ncc(N3CCOCC3)cc2=O)cc1 | 6.53 | 9.26 | 8.68 | 8.01 | – | – | – | – | – | – | – | – | – | – |
| NS(=O)(=O)c1ccc(-n2ncc(N3CCCCCC3)cc2=O)cc1 | 7.05 | 10.10 | 9.25 | 8.20 | – | – | – | – | – | – | – | – | – | – |
| Cc1nn(-c2ccc(S(N)(=O)=O)cc2)c(=O)c2ccccc12 | 7.05 | 10.52 | 9.62 | 8.05 | – | – | – | – | – | – | – | – | – | – |
| NS(=O)(=O)c1ccc(-n2ncc(Cl)c(Cl)c2=O)cc1 | 6.32 | 8.64 | 8.06 | 8.00 | >30 | – | – | – | – | – | – | – | – | – |
| NS(=O)(=O)c1ccc(-n2ncc3ccccc3c2=O)cc1 | 7.14 | 9.64 | 9.49 | 7.30 | – | – | – | – | – | – | – | – | – | – |
| CCN1CCN(c2cnn(-c3ccc(S(N)(=O)=O)cc3)c(=O)c2Cl)CC1 | 6.31 | 9.54 | 9.15 | 8.14 | >30 | Non-Toxic | Non-Toxic | – | inactive | inactive | inactive | inactive | inactive | – |
| NS(=O)(=O)c1ccc(-n2nc(-c3ccccc3O)ccc2=O)cc1 | 7.08 | 9.21 | 9.34 | 8.03 | – | – | – | – | – | – | – | – | – | – |
| CCN1CCN(c2cnn(-c3ccc(S(N)(=O)=O)cc3)c(=O)c2)CC1 | 6.51 | 8.37 | 7.38 | 7.60 | – | – | – | – | – | – | – | – | – | Active |

Reference: ChEMBL document CHEMBL4390661, “Pyridazinone-substituted benzenesulfonamides display potent inhibition of membrane-bound human carbonic anhydrase IX and promising antiproliferative activity against cancer cell lines” (Eur J Med Chem, 2019)
